EC50 and CC50 data for 29 compounds are collected here from PubChem BioAssay AID815 (Emory University Molecular Libraries Screening Center, 2007).

The structures appear in SMILES notation. Records with an inconclusive call do not appear. Activity calls are given as the source filed them.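 Rule for the calls: active = compounds whose half-maximal effective concentration EC50 against measles virus is under 10 µM; inactive = the rest, inconclusive results apart.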

The experiment has as its system Vero cells, measles virus yield reduction, TCID50, 36 h. Kind of experiment: measles virus yield reduction and host cell toxicity, dose response, EC50 and CC50 (AID 815). The following applies: for CC50: measured here: cytotoxicity, viable cells.

In the case of `Cn1nc(C(F)(F)F)cc1C(=O)Nc1ccc(S(=O)(=O)N2CCNCC2)cc1`, the EC50 is 28 µM (inactive) and the CC50 worked out at 126 µM.

With `O=C(Nc1ccc(S(=O)(=O)N2CCCC2)cc1)c1ccc(C(F)(F)F)cc1[N+](=O)[O-]`, the EC50 is > 75 µM (inactive) and the CC50 is above 300 µM.

In the case of `Cn1nc(C(F)(F)F)cc1C(=O)Nc1ccc(S(=O)(=O)N2CCCC2)cc1O`, the EC50 was > 75 µM (inactive) and the CC50 came to 288 µM.

Turning to `Cc1cc(C(=O)Nc2ccc(S(=O)(=O)N3CCCC3)cc2)n(C)n1`, the EC50 is > 75 µM (inactive) and the CC50 is above 300 µM.

Consider `Cn1nc(C(F)(F)F)cc1C(=O)Nc1ccc(S(=O)(=O)N2CCOCC2)cc1`, for which the EC50 is 43 µM (inactive) and the CC50 is above 300 µM.

As for `Cn1nc(C(F)(F)F)cc1COc1ccc(S(=O)(=O)N2CCCC2)cc1`, the EC50 was > 75 µM (inactive) and the CC50 is above 300 µM.

Regarding `O=C(Nc1ccc(S(=O)(=O)N2CCCC2)cc1)c1ccccc1C(F)(F)F`, the EC50 is > 75 µM (inactive) and the CC50 was above 300 µM.

In the case of `Cn1nc(C(F)(F)F)cc1C(=O)Nc1ccc(S(=O)(=O)N2CCC[C@H]2C(=O)O)cc1`, the EC50 is 23 µM (inactive) and the CC50 is above 300 µM.

As to `Nc1ccc(C(=O)Nc2ccc(S(=O)(=O)N3CCCC3)cc2)c(Cl)c1`, the EC50 is > 75 µM (inactive) and the CC50 was above 300 µM.

Turning to `Cn1nc(C(F)(F)F)cc1C(=O)Cc1ccc(S(=O)(=O)N2CCCC2)cc1`, the EC50 is 15.5 µM (inactive) and the CC50 is above 300 µM.

As for `O=C(Nc1ccc(S(=O)(=O)N2CCCC2)cc1)c1cccs1`, the EC50 was > 75 µM (inactive) and the CC50 was above 300 µM.

Regarding `O=C(Nc1ccc(S(=O)(=O)N2CCCC2)cc1)c1ccc(C(F)(F)F)cc1`, the EC50 was 48 µM (inactive) and the CC50 is above 300 µM.

On to `O=C(Nc1ccc(S(=O)(=O)N2CCCC2)cc1)c1ccc(F)cc1`, for which the EC50 is > 75 µM (inactive) and the CC50 was above 300 µM.

As for `COc1ccc(Br)c(C(=O)Nc2ccc(S(=O)(=O)N3CCCC3)cc2)c1`, the EC50 is > 75 µM (inactive) and the CC50 is above 300 µM.

`O=C(Nc1ccc(S(=O)(=O)N2CCCC2)cc1)c1nccn1-c1ccccc1C(F)(F)F`: the EC50 was 65 µM (inactive) and the CC50 is above 300 µM.

As to `O=C(Nc1ccc(S(=O)(=O)N2CCCC2)cc1)c1ccco1`, the EC50 is > 75 µM (inactive) and the CC50 is above 300 µM.

For `O=C(Nc1ccc(S(=O)(=O)N2CCCC2)cc1)c1nc2ccccc2s1`, the EC50 was > 75 µM (inactive) and the CC50 is above 300 µM.

With `Cn1nc(C(C)(C)C)cc1C(=O)Nc1ccc(S(=O)(=O)N2CCCC2)cc1`, the EC50 was 25 µM (inactive) and the CC50 stood at 140 µM.

In the case of `Cn1nc(C(F)(F)F)cc1C(O)Cc1ccc(S(=O)(=O)N2CCCC2)cc1` (stereo not drawn), the EC50 was 41 µM (inactive) and the CC50 was above 300 µM.

Take `O=C(Nc1ccc(S(=O)(=O)N2CCCC2)cc1)c1cc(C(F)(F)F)nn1Cc1ccccc1`: the EC50 was > 75 µM (inactive) and the CC50 came to 37 µM.

With `Cc1nc(C(F)(F)F)ccc1C(=O)Nc1ccc(S(=O)(=O)N2CCCC2)cc1`, the EC50 is > 75 µM (inactive) and the CC50 was above 300 µM.

Consider `Cn1nc(C(F)(F)F)cc1C(=O)Nc1ccc(S(=O)(=O)N2CCCCC2)cc1`, for which the EC50 was below 2.3 µM and the CC50 is above 300 µM.

For `Cc1cc(CNc2ccc(S(=O)(=O)N3CCCC3)cc2)n(C)n1`, the EC50 is > 75 µM (inactive) and the CC50 is above 300 µM.

With `O=C(Nc1ccc(S(=O)(=O)N2CCCC2)cc1)c1cccc(C(F)(F)F)c1`, the EC50 is > 75 µM (inactive) and the cytotoxic concentration (CC50) was above 300 µM.

Turning to `Cn1nc(C(F)(F)F)cc1C(=O)Nc1ccc(S(=O)(=O)N2CCCCC2C(=O)O)cc1` (stereo not drawn), the EC50 was > 75 µM (inactive) and the CC50 is above 300 µM.

As to `Cn1nc(C(F)(F)F)cc1C(=O)Nc1ccc(S(=O)(=O)N2CCC[C@H]2C(=O)OC(=O)c2ccccc2)cc1`, the EC50 was 14 µM (inactive) and the CC50 came to 100 µM.

For the compound `O=C(Nc1ccc(S(=O)(=O)N2CCCC2)cc1)c1cc(C(F)(F)F)ccc1F`, the EC50 is > 75 µM (inactive) and the CC50 was found to be 76 µM.

With `O=C(Nc1ccc(S(=O)(=O)N2CCCC2)cc1)c1ccc([N+](=O)[O-])cc1Cl`, the EC50 is > 75 µM (inactive) and the CC50 is above 300 µM.

`Cn1nc(C(F)(F)F)cc1C(=O)Nc1ccc(S(=O)(=O)N2CCCC2)cc1N`: the EC50 is > 75 µM (inactive) and the CC50 was above 300 µM.
